Data: publication PMC7840129, “Structural basis for heme-dependent NCoR binding to the transcriptional repressor REV-ERBβ” (Science Advances, 2021)

What was measured:
Apo REV-ERBβ LBD = target: T1, Apo REV-ERBβ LBD (Homo sapiens, UniProt Q14995); assay: ITC, NCoR ID peptides with apo REV-ERBβ LBD; format: binding
T1 construct: The human REV-ERBβ LBD (residues 381 to 579) was previously cloned; 6xHis with 3C protease cleavage site (N, cleaved yes); made in house; host or cells: E. coli BL21(DE3)
T1 sequence (Q14995 381-579): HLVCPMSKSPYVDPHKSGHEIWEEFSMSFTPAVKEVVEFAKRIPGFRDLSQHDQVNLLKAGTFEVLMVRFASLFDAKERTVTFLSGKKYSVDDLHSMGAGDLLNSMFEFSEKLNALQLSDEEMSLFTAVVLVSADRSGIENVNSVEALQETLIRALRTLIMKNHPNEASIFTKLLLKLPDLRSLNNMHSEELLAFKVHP
Description: The human REV-ERBβ LBD (residues 381 to 579) was previously cloned into the pET46 vector ([18]). The mouse NCoR RID (residues 1942 to 2208 in the X50 splice variant), which has 87% sequence identity to human NCoR RID (100% sequence identity in the ID motifs), was previously cloned into the pET32 vector ([29]). NCoR RID mutants were generated by site-directed mutagenesis: The ID1 CoRNR box motif was mutated from […] to […] (ΔID1 and ΔID1ΔID2), and the ID2 CoRNR box motif was mutated from LEDIIRKAL to TEDTTRKAL (ΔID2 and ΔID1ΔID2), as these mutations were previously reported to disrupt CoRNR box binding ([10], [30]). Heme (Sigma-Aldrich, no. 51280) was prepared either as a 1 mM stock in dimethyl sulfoxide (DMSO) stored at 4°C or 50 mM stock in 0.2 M NaOH (solutions prepared in 0.2 M NaOH were always made fresh immediately before the experiment), where indicated. […] Human embryonic kidney (HEK) 293T cells (American Type Culture Collection, no. CRL-11268) were cultured in Dulbecco’s modified eagle medium (DMEM) supplemented with 10% fetal bovine serum, 2 mM L-glutamine, and 1% penicillin-streptomycin at 37°C and 5% CO2 under standard culture conditions. The pcDNA3.1^+ expression vector containing full-length human REV-ERBβ ([31]) and the pGL3-Bmal1-luciferase construct containing the Bmal1 promoter (−816 to +99 of the mouse Bmal1 promoter region) were used in HEK293T cell transfections. Site-directed mutagenesis was performed to mutate the proximal RORE (pRORE mutant), distal RORE (dRORE mutant), or both (p/dRORE mutant) in the pGL3-Bmal1-luciferase construct based on a previous study ([6]) where the ROREs were mutated to disrupt REV-ERBα activity.
Human REV-ERBβ LBD was expressed in BL21(DE3) Escherichia coli cells with an N-terminal hexahistidine (6xHis) tag separated by a 3C protease cleavage site. Expression was performed using auto-induction media: Cells were grown at 37°C for 5 hours, 30°C for 1 hour, and 18°C for 16 hours before harvesting by centrifugation. Pellets were resuspended in potassium phosphate lysis buffer [40 mM potassium phosphate (pH 7.4), 500 mM KCl, 15 mM imidazole, and 1 mM dithiothreitol (DTT)] supplemented with leupeptin, pepstatin A, lysozyme, and deoxyribonuclease (DNase) I and sonicated on ice. […] A 5-ml aliquot of 6xHis-tagged protein was purified by size exclusion chromatography using a Superdex 75 column equilibrated in time-resolved fluorescence energy transfer (TR-FRET) assay buffer [20 mM potassium phosphate (pH 7.4), 50 mM KCl, and 0.5 mM EDTA]; purified aliquots were stored at −80°C for TR-FRET assays. To cleave the 6xHis tag from the remaining protein, it was incubated overnight with 3C protease (generated in-house) via dialysis; then, protein was reloaded onto the HisTrap columns, and the flow-through was collected. Last, aggregates were removed by size exclusion chromatography using a Superdex 75 column and Hepes gel filtration buffer [20 mM Hepes (pH 7.4), 50 mM KCl, and 0.5 mM EDTA]. Greater than 95% purity was confirmed by SDS-PAGE. Protein was aliquoted and stored at −80°C.
ITC experiments were performed using a MicroCal iTC200. All experiments were solvent-matched and contained 0.1% DMSO (peptide vehicle) and 0.2% 0.2 M solution of NaOH (heme vehicle) final concentrations. NITPIC software ([37]) was used to calculate baselines and integrate curves and prepare experimental data for fitting in SEDPHAT, which was used to generate final binding affinity and thermodynamic parameter measurements ([38]).Final figures were exported to GUSSI for publication-quality figure preparation ([39]).
NCoR ID1 and NCoR ID2 peptides were prepared at 50 μM in assay buffer [20 mM Hepes (pH 7.4), 50 mM KCl, 0.5 mM EDTA, and 5 mM tris(2-carboxyethyl)phosphine (TCEP)], and REV-ERBβ LBD was prepared at 500 μM. […]

heme-bound REV-ERBβ LBD = target: T2, heme-bound REV-ERBβ LBD (Homo sapiens, UniProt Q14995); assay: ITC, NCoR ID peptides with heme-bound REV-ERBβ LBD; format: binding; conditions: for TΔS: pH 7.4, T constant at 25°C; for thermodynamic profile of peptide binding (in words), + heme: heme-bound LBD; for effect of heme on LBD affinity for peptide (in words): heme-bound vs apo LBD
T2 construct: The human REV-ERBβ LBD (residues 381 to 579) was previously cloned; 6xHis with 3C protease cleavage site (N, cleaved yes); made in house; host or cells: E. coli BL21(DE3)
T2 sequence (Q14995 381-579): T1 sequence (Q14995 381-579)
Description: NCoR RID mutants were generated by site-directed mutagenesis: The ID1 CoRNR box motif was mutated from [sequence] to [sequence] (ΔID1 and ΔID1ΔID2), and the ID2 CoRNR box motif was mutated from LEDIIRKAL to TEDTTRKAL (ΔID2 and ΔID1ΔID2), as these mutations were previously reported to disrupt CoRNR box binding ([10], [30]). Heme (Sigma-Aldrich, no. 51280) was prepared either as a 1 mM stock in dimethyl sulfoxide (DMSO) stored at 4°C or 50 mM stock in 0.2 M NaOH (solutions prepared in 0.2 M NaOH were always made fresh immediately before the experiment), where indicated. […] Human embryonic kidney (HEK) 293T cells (American Type Culture Collection, no. CRL-11268) were cultured in Dulbecco’s modified eagle medium (DMEM) supplemented with 10% fetal bovine serum, 2 mM L-glutamine, and 1% penicillin-streptomycin at 37°C and 5% CO2 under standard culture conditions. The pcDNA3.1^+ expression vector containing full-length human REV-ERBβ ([31]) and the pGL3-Bmal1-luciferase construct containing the Bmal1 promoter (−816 to +99 of the mouse Bmal1 promoter region) were used in HEK293T cell transfections. Site-directed mutagenesis was performed to mutate the proximal RORE (pRORE mutant), distal RORE (dRORE mutant), or both (p/dRORE mutant) in the pGL3-Bmal1-luciferase construct based on a previous study ([6]) where the ROREs were mutated to disrupt REV-ERBα activity.
LBD in the syringe was titrated into ID peptide in the sample cell at 25°C with a 60-s delay between injections (2-μl intervals) with a mixing speed of 1200 rpm for a total of 20 injections (or 2 molar equivalents of LBD), unless otherwise noted below.

[1] = ID2 peptide, 25°C, fitted estimate due to low c value, 95% CI n.d.
[2] = +Heme LBD, pH 7.4, 25°C, 95% CI
[3] = ID1 peptide, pH 7.4, 25°C, 95% CI

Compound	affinity of apo LBD for peptide (in words) (Apo REV-ERBβ LBD)	thermodynamic profile of peptide binding (in words), apo (Apo REV-ERBβ LBD)	TΔS (Apo REV-ERBβ LBD; [1]) [kcal/mol]	ΔG, free energy of binding (Apo REV-ERBβ LBD; [1]) [kcal/mol]	ΔH, enthalpy of binding (Apo REV-ERBβ LBD; [1]) [kcal/mol]	ΔH, enthalpy of binding (heme-bound REV-ERBβ LBD; [2]) [kcal/mol]	TΔS (heme-bound REV-ERBβ LBD; +Heme LBD, 95% CI) [kcal/mol]	thermodynamic profile of peptide binding (in words), + heme (heme-bound REV-ERBβ LBD)	effect of heme on LBD affinity for peptide (in words) (heme-bound REV-ERBβ LBD)	ΔG, free energy of binding (Apo REV-ERBβ LBD; [3]) [kcal/mol]	ΔH, enthalpy of binding (Apo REV-ERBβ LBD; [3]) [kcal/mol]	TΔS (Apo REV-ERBβ LBD; ID1 peptide, pH 7.4, T constant at 25°C, 95% CI) [kcal/mol]	ΔG, free energy of binding (heme-bound REV-ERBβ LBD; [2]) [kcal/mol]
CC[C@H](C)[C@H](NC(=O)[C@H](CC(=O)O)NC(=O)[C@H](CCC(=O)O)NC(=O)[C@H](CC(C)C)NC(=O)CNC(=O)[C@H](CC(C)C)NC(=O)[C@H](CC(N)=O)NC(=O)[C@H](CO)NC(=O)[C@H](C)NC(=O)[C@@H]1CCCN1C(=O)[C@H](CC(=O)O)NC(C)=O)C(=O)N[C@H](C(=O)N[C@@H](CCCNC(=N)N)C(=O)N[C@@H](CCCCN)C(=O)N[C@@H](C)C(=O)N[C@@H](CC(C)C)C(=O)N[C@@H](CCSC)C(=O)NCC(=O)N[C@@H](CO)C(=O)N[C@@H](Cc1ccccc1)C(=O)N[C@@H](CC(=O)O)C(=O)N[C@@H](CC(=O)O)C(=O)N[C@@H](CCCCN)C(N)=O)[C@@H](C)CC [NCoR ID2 peptide]	low affinity	enthalpically driven and exothermic	-4.2	-5.6	-9.7	3.0	10.7	entropically driven and endothermic	increased LBD affinity				
Ac-RTHRLITLADHICQIITQDFARN-NH2 [NCoR ID1 peptide]	high affinity	enthalpically driven and exothermic				1.7	9.3	entropically driven and endothermic	decreased LBD affinity	-8.6	-7.7	0.88	-7.7
